Laboratory results: EP1247803A2, “Indolinone compounds suitable for modulation of protein kinases” (Sugen, Inc., priority 1996, dated 1998)

Molecular target: T1, EGFR (Homo sapiens, UniProt P00533)
T1 construct: Add 7 ug A431 cell lysate per well (EGFR source); endogenous in cells; host or cells: A431
Experiment: EGFR ELISA assay (in vitro kinase activity, EGFR captured from A431 cell lysate)
Format: biochemical
Set-up: concentration or dose not given beside the values
Method in brief: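 EGFR from A431 lysate was captured on anti-EGFR antibody-coated plates and preincubated with compounds for 30 min. Autophosphorylation ran 5 min with 3 uM ATP and 5 mM MnCl2 (final), stopped with 20 mM EDTA. Phosphotyrosine was detected by anti-pTyr ELISA with ABTS/H2O2, read at 410 nm.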

T1 sequence (P00533 25-1210): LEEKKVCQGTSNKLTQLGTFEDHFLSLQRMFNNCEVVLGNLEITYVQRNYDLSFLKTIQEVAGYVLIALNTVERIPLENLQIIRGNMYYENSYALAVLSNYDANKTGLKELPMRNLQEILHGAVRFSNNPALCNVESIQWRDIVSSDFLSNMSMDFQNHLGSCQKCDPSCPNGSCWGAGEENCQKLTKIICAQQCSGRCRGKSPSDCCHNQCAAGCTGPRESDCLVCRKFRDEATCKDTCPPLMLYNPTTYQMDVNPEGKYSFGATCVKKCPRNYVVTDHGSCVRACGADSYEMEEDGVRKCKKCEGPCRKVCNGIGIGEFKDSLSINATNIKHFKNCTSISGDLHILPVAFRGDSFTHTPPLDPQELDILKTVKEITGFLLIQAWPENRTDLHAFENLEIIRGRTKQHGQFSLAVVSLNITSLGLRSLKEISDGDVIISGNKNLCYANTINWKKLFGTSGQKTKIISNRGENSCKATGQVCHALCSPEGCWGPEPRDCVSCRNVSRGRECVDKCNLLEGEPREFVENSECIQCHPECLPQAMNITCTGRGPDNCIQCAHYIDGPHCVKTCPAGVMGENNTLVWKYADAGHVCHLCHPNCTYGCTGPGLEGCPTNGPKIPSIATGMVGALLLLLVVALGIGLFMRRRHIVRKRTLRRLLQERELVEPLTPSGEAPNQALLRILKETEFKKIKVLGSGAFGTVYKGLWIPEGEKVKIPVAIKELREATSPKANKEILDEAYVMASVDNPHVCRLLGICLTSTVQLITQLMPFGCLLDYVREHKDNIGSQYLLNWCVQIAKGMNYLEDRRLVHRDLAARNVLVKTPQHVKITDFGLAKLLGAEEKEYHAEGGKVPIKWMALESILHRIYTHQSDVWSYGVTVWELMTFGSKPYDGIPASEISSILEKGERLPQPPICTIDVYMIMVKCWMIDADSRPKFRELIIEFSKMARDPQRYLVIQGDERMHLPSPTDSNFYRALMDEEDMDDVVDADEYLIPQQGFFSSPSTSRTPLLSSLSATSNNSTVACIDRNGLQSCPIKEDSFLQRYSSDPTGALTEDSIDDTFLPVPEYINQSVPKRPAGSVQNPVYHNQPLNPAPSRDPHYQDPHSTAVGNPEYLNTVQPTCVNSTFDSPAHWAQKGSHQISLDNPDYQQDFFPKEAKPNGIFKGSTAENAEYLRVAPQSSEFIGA

Going from COc1cc(C)cc(O)c1C=C1C(=O)Nc2ccc(I)cc21 [10725/B06] to COc1ccc(Br)c(C=C2C(=O)Nc3ccc(I)cc32)c1O [10725/B03], the “Biochem EGFR %Inhibition” value falls from -13.7% to -15.3%.

Going from CNS(=O)(=O)c1ccc2c(c1)C(=Cc1cc3ccccc3o1)C(=O)N2 [10724/D07] to O=C1Nc2ccc(I)cc2C1=Cc1cc2ccccc2o1 [10724/B07], the “Biochem EGFR %Inhibition” value rises from 25.6% to 44.0%.

Compared with CNS(=O)(=O)c1ccc2c(c1)C(=Cc1sc3scc(C)c3c1C)C(=O)N2 [10724/D11], Cc1csc2sc(C=C3C(=O)Nc4ccc(I)cc43)c(C)c12 [10724/B11] is lower in “Biochem EGFR %Inhibition” value: 12.9% for the first, -23.2% for the second.

Going from CCc1ccc(C=C2C(=O)Nc3ccc(S(=O)(=O)NC)cc32)o1 [10724/D10] to CCc1ccc(C=C2C(=O)Nc3ccc(I)cc32)o1 [10724/B10], the “Biochem EGFR %Inhibition” value rises from 12.7% to 76.2%.

First: Cc1c(Br)ccc2c1C(=Cc1ccc(O)c([N+](=O)[O-])c1)C(=O)N2 [10724/C03]
Second: Cc1c(Br)ccc2c1C(=Cc1ccc([N+](=O)[O-])c(O)c1)C(=O)N2 [10724/C04]
The “Biochem EGFR %Inhibition” value of the first is higher: 16.5% for the first, 13.2% for the second.

First: O=C1Nc2ccc(CCCl)cc2C1=Cc1cc2ccccc2o1 [10724/G07]
Second: O=C1Nc2ccc(CCCl)cc2C1=Cc1cccc(Br)c1 [10723/G10]
The “Biochem EGFR %Inhibition” value of the first is lower: -11.7% for the first, -4.1% for the second.

Compared with Cc1cc(C=C2C(=O)Nc3ccc(I)cc32)[nH]n1 [10725/B05], O=C1Nc2ccc(I)cc2C1=Cc1c[nH]cn1 [10725/B11] is higher in “Biochem EGFR %Inhibition” value: 20.4% for the first, 43.0% for the second.

Going from O=C1Nc2ccc(S(=O)(=O)Nc3ccc(C(F)(F)F)cc3)cc2C1=Cc1cc2ccccc2o1 [10724/E07] to CCc1ccc(C=C2C(=O)Nc3ccc(S(=O)(=O)Nc4ccc(C(F)(F)F)cc4)cc32)o1 [10724/E10], the “Biochem EGFR %Inhibition” value rises from 9.4% to 41.4%.

Going from O=C1Nc2ccc(S(=O)(=O)Nc3ccc(C(F)(F)F)cc3)cc2C1=Cc1cccn1-c1ccc(Cl)cc1 [10724/E09] to CNS(=O)(=O)c1ccc2c(c1)C(=Cc1cccn1-c1ccc(Cl)cc1)C(=O)N2 [10724/D09], the “Biochem EGFR %Inhibition” value falls from 6.3% to -15.3%.

Compared with CNS(=O)(=O)c1ccc2c(c1)C(=Cc1cc3c4c(c1O)CCCN4CCC3)C(=O)N2 [10724/D05], O=C1Nc2ccc(CCCl)cc2C1=Cc1cc2c3c(c1O)CCCN3CCC2 [10724/G05] is lower in “Biochem EGFR %Inhibition” value: -8.4% for the first, -20.8% for the second.

First: CC(C)c1cc(C=C2C(=O)Nc3c(Br)cc(Br)cc32)cc(C(C)C)c1O [10724/A06]
Second: Cc1c(Br)ccc2c1C(=Cc1cc(C(C)C)c(O)c(C(C)C)c1)C(=O)N2 [10724/C06]
The “Biochem EGFR %Inhibition” value of the first is higher: 1.4% for the first, -2.4% for the second.

Compared with CC(C)c1cc(C=C2C(=O)Nc3ccc(CCCl)cc32)cc(C(C)C)c1O [10724/G06], CC(C)c1cc(C=C2C(=O)Nc3ccc(I)cc32)cc(C(C)C)c1O [10724/B06] is higher in “Biochem EGFR %Inhibition” value: 3.2% for the first, 30.9% for the second.

Compared with O=C1Nc2ccc(I)cc2C1=Cc1cccn1-c1ccc(Cl)cc1 [10724/B09], O=C1Nc2ccc(CCCl)cc2C1=Cc1cccn1-c1ccc(Cl)cc1 [10724/G09] is lower in “Biochem EGFR %Inhibition” value: 8.7% for the first, -21.7% for the second.

First: O=CN1CCN(c2ccc(C=C3C(=O)Nc4ccc(I)cc43)cc2)CC1 [10725/B07]
Second: O=C1Nc2ccc(I)cc2C1=Cc1ccc(N2CCOCC2)cc1 [10725/B08]
The “Biochem EGFR %Inhibition” value of the first is higher: 45.8% for the first, 41.8% for the second.

Compared with O=CN1CCN(c2ccc(C=C3C(=O)Nc4c(Br)cc(Br)cc43)cc2)CC1 [10725/A07], O=C1Nc2c(Br)cc(Br)cc2C1=Cc1ccc(N2CCOCC2)cc1 [10725/A08] is lower in “Biochem EGFR %Inhibition” value: 18.2% for the first, 10.9% for the second.

Going from Cc1c(Br)ccc2c1C(=Cc1cccn1-c1ccc(Cl)cc1)C(=O)N2 [10724/C09] to O=C1Nc2c(Br)cc(Br)cc2C1=Cc1cccn1-c1ccc(Cl)cc1 [10724/A09], the “Biochem EGFR %Inhibition” value rises from 1.0% to 1.6%.

First: O=C1Nc2c(Br)cc(Br)cc2C1=Cc1cc2c3c(c1O)CCCN3CCC2 [10724/A05]
Second: Cc1c(Br)ccc2c1C(=Cc1cc3c4c(c1O)CCCN4CCC3)C(=O)N2 [10724/C05]
The “Biochem EGFR %Inhibition” value of the first is higher: 20.3% for the first, -0.8% for the second.

First: O=C1Nc2c(Br)cc(Br)cc2C1=Cc1sccc1Br [10725/A02]
Second: COc1ccc(Br)c(C=C2C(=O)Nc3c(Br)cc(Br)cc32)c1O [10725/A03]
The “Biochem EGFR %Inhibition” value of the first is higher: 3.9% for the first, -38.2% for the second.

First: Cc1[nH]c(C=C2C(=O)Nc3ccc(S(=O)(=O)Nc4ccc(C(F)(F)F)cc4)cc32)c(Br)c1Br [10717/E11]
Second: O=C1Nc2ccc(S(=O)(=O)Nc3ccc(C(F)(F)F)cc3)cc2C1=Cc1ccc[nH]1 [10717/E09]
The “Biochem EGFR %Inhibition” value of the first is higher: 44.9% for the first, -5.8% for the second.

First: O=C1Nc2ccc(I)cc2C1=Cc1sccc1Br [10725/B02]
Second: O=C1Nc2ccc(I)cc2C1=Cc1ccc(O)c([N+](=O)[O-])c1 [10724/B03]
The “Biochem EGFR %Inhibition” value of the first is lower: 2.5% for the first, 14.9% for the second.

First: O=C1Nc2ccc(S(=O)(=O)N3CCOCC3)cc2C1=Cc1cccs1 [10717/F03]
Second: Cn1cccc1C=C1C(=O)Nc2ccc(S(=O)(=O)N3CCOCC3)cc21 [10717/F04]
The “Biochem EGFR %Inhibition” value of the first is higher: -4.7% for the first, -15.7% for the second.

First: Cc1csc2sc(C=C3C(=O)Nc4ccc(S(=O)(=O)Nc5ccc(C(F)(F)F)cc5)cc43)c(C)c12 [10724/E11]
Second: COc1cccc(O)c1C=C1C(=O)Nc2ccc(S(=O)(=O)Nc3ccc(C(F)(F)F)cc3)cc21 [10717/E10]
The “Biochem EGFR %Inhibition” value of the first is lower: -26.8% for the first, -6.1% for the second.

First: O=C1Nc2ccc(S(=O)(=O)Nc3ccc(C(F)(F)F)cc3)cc2C1=Cc1ccc(O)c([N+](=O)[O-])c1 [10724/E03]
Second: O=C1Nc2ccc(S(=O)(=O)Nc3ccc(C(F)(F)F)cc3)cc2C1=Cc1ccc([N+](=O)[O-])c(O)c1 [10724/E04]
The “Biochem EGFR %Inhibition” value of the first is higher: 33.1% for the first, 8.9% for the second.

First: CNS(=O)(=O)c1ccc2c(c1)C(=Cc1ccc(O)c([N+](=O)[O-])c1)C(=O)N2 [10724/D03]
Second: CNS(=O)(=O)c1ccc2c(c1)C(=Cc1ccc([N+](=O)[O-])c(O)c1)C(=O)N2 [10724/D04]
The “Biochem EGFR %Inhibition” value of the first is lower: 2.5% for the first, 5.4% for the second.

First: Cc1cc(C=C2C(=O)Nc3c(Br)cc(Br)cc32)[nH]n1 [10725/A05]
Second: Cn1cccc1C=C1C(=O)Nc2c(Br)cc(Br)cc21 [10717/A04]
The “Biochem EGFR %Inhibition” value of the first is lower: 7.9% for the first, 29.0% for the second.

First: CCc1ccc(C=C2C(=O)Nc3ccc(Br)c(C)c32)o1 [10724/C10]
Second: Cc1c(Br)ccc2c1C(=Cc1cc3ccccc3o1)C(=O)N2 [10724/C07]
The “Biochem EGFR %Inhibition” value of the first is higher: 13.8% for the first, 9.4% for the second.

Compared with O=C1Nc2ccc(S(=O)(=O)N3CCOCC3)cc2C1=Cc1ccc(F)cc1 [10717/F05], CCOc1ccccc1C=C1C(=O)Nc2ccc(S(=O)(=O)N3CCOCC3)cc21 [10717/F02] is higher in “Biochem EGFR %Inhibition” value: -20.1% for the first, 6.2% for the second.

First: CCc1ccc(C=C2C(=O)Nc3ccc(CCCl)cc32)o1 [10724/G10]
Second: O=C1Nc2ccc(CCCl)cc2C1=Cc1ccc([N+](=O)[O-])c(O)c1 [10724/G04]
The “Biochem EGFR %Inhibition” value of the first is lower: -10.6% for the first, 12.9% for the second.

Compared with Cc1c(Br)ccc2c1C(=Cc1ccc(N(C)C)c3ccccc13)C(=O)N2 [10724/C02], CN(C)c1ccc(C=C2C(=O)Nc3c(Br)cc(Br)cc32)c2ccccc12 [10724/A02] is lower in “Biochem EGFR %Inhibition” value: 53.6% for the first, 36.7% for the second.

First: COC(=O)Cc1c(Cl)[nH]c(C=C2C(=O)Nc3ccc(I)cc32)c1C(=O)OC [10725/B09]
Second: COC(=O)Cc1c(Cl)[nH]c(C=C2C(=O)Nc3c(Br)cc(Br)c(C)c32)c1C(=O)OC [10725/A09]
The “Biochem EGFR %Inhibition” value of the first is higher: 72.3% for the first, 4.9% for the second.

Compared with CN(C)c1ccc(C=C2C(=O)Nc3ccc(S(=O)(=O)Nc4ccc(C(F)(F)F)cc4)cc32)c2ccccc12 [10724/E02], CNS(=O)(=O)c1ccc2c(c1)C(=Cc1ccc(N(C)C)c3ccccc13)C(=O)N2 [10724/D02] is higher in “Biochem EGFR %Inhibition” value: 39.8% for the first, 40.5% for the second.

First: O=C1Nc2ccc(S(=O)(=O)N3CCOCC3)cc2C1=Cc1c[nH]c2ccccc12 [10717/F06]
Second: O=C1Nc2ccc(S(=O)(=O)Nc3ccc(C(F)(F)F)cc3)cc2C1=Cc1cc2c3c(c1O)CCCN3CCC2 [10724/E05]
The “Biochem EGFR %Inhibition” value of the first is lower: -22.8% for the first, 0.5% for the second.

Compared with O=C1Nc2ccc(I)cc2C1=Cc1c(Br)cnn1-c1ccc(Cl)cc1 [10725/B10], Cc1c(Br)cc(Br)c2c1C(=Cc1c(Br)cnn1-c1ccc(Cl)cc1)C(=O)N2 [10725/A10] is lower in “Biochem EGFR %Inhibition” value: 53.3% for the first, 14.0% for the second.

Compared with Cc1csc2sc(C=C3C(=O)Nc4c(Br)cc(Br)cc43)c(C)c12 [10724/A11], Cc1c(Br)ccc2c1C(=Cc1sc3scc(C)c3c1C)C(=O)N2 [10724/C11] is higher in “Biochem EGFR %Inhibition” value: -16.6% for the first, 0.7% for the second.

Compared with O=C1Nc2c(Br)cc(Br)cc2C1=Cc1ccc([N+](=O)[O-])c(O)c1 [10724/A04], O=C1Nc2c(Br)cc(Br)cc2C1=Cc1ccc(O)c([N+](=O)[O-])c1 [10724/A03] is higher in “Biochem EGFR %Inhibition” value: 15.4% for the first, 17.2% for the second.

Compared with CCc1ccc(C=C2C(=O)Nc3c(Br)cc(Br)cc32)o1 [10724/A10], COc1cc(C)cc(O)c1C=C1C(=O)Nc2c(Br)cc(Br)cc21 [10725/A06] is lower in “Biochem EGFR %Inhibition” value: 40.0% for the first, -9.5% for the second.

First: CC(C)c1cc(C=C2C(=O)Nc3ccc(S(=O)(=O)Nc4ccc(C(F)(F)F)cc4)cc32)cc(C(C)C)c1O [10724/E06]
Second: CNS(=O)(=O)c1ccc2c(c1)C(=Cc1cc(C(C)C)c(O)c(C(C)C)c1)C(=O)N2 [10724/D06]
The “Biochem EGFR %Inhibition” value of the first is higher: 1.6% for the first, -12.4% for the second.

Going from Cc1c(Br)cc(Br)c2c1C(=Cc1c[nH]cn1)C(=O)N2 [10725/A11] to Cc1csc2sc(C=C3C(=O)Nc4ccc(CCCl)cc43)c(C)c12 [10724/G11], the “Biochem EGFR %Inhibition” value falls from 14.6% to -29.5%.

Compared with CC(C)(C)c1cc(C=C2C(=O)Nc3ccc(CCCl)cc32)c(O)c(C(C)(C)C)c1 [10723/G11], O=C1Nc2ccc(CCCl)cc2C1=Cc1ccc(O)c([N+](=O)[O-])c1 [10724/G03] is higher in “Biochem EGFR %Inhibition” value: -35.0% for the first, 7.8% for the second.
